Reference: patent US20260200849A1, “CATIONIC LIPIDS AND PREPARATION METHOD THEREOF” (RiboX Therapeutics HK Limited, priority 2024, published 2026)

What was measured:
[1] = RNA encapsulation efficacy (EE %) by Quant-IT Ribogreen kit; assay type: physicochemical; conditions: LNP, Formulation No. 001, RNA No. 331
Description: (§1) The LNP size and polydispersity index (PDI), determined by dynamic light scattering (DLS), and zeta potential were measured by a Zetasizer machine (Malvern). RNA concentration and encapsulation efficacy (EE %) were analyzed by the Quant-IT Ribogreen kit by calculating the percentage encapsulation at 100%—(RNA-LNPs/RNA-LNPs with Triton X-100).

Balb/c mice = assay: In vivo expression by IV, 0.05 mg/kg luciferase RNA-LNPs, IVIS luminescence; conditions: Formulation No. 001, RNA No. 331; female Balb/c mice, 0.05 mg*kg−1 intravenous, 24-hours post injection
Description: (§2) 7-8 week old, female Balb/c mice (N=3) were injected with 0.05 mg*kg−1 of RNA-LNPs encoding for firefly-luciferase by intravenous injection. At 24- and 72-hours post injection, animals were intraperitoneally injected with 15 mg/mi of Luciferin substrate and whole-body luminescence was determined by a bioluminescent in vivo imaging system (IVIS).
as §2, with “24-hours” for “24- and 72-hours”, “mg/ml” for “mg/mi”, “whole-body/liver/spleen” for “whole-body”

IL-6 = assay: In vivo tolerability by IV: serum IL-6 by Luminex; parameters: species or system C57BL/6J mice; conditions: Formulation No. 001, RNA No. 331, male C57BL/6J mice, 1.0 mg*kg/1 intravenous; for IL-6 at 2 h: 2 hours post injection; for IL-6 at 24 h: 24 hours post injection
Description: (§3) 6-8 week old, male C57BL/6J mice (N=3) were injected with 1.0 mg*kg/1 of RNA-LNPs encoding for firefly-luciferase by intravenous injection. At 2- and 24-hours post injection, about 40 μL blood was harvested and immediately added to the procoagulant containing tube. Stand for 30 min at room temperature and then centrifuged at 2500 g×10 min to obtain serum. About 15 μL serum samples were aliquoted for cytokine (MCP-1 and IL-6) detection by Luminex (ProcartaPlex Mouse 2-plex, Thermo). PBS group as negative control.
as §3, with “mg*kg−1” for “mg*kg/1”

Hep G2 cells [2] = assay: In vitro toxicity: Hep G2 cell viability by CellTiter-Glo; assay type: cell-based; conditions: Formulation No. 001, RNA No. 331, 1 μg/mL RNA-LNPs, 72 hours post transfection, cell only = 100%
Description: 2E5 Hep G2 cells were transfected with 1 μg/mL RNA-LNPs. At 72 hours post transfection, cell viability (2-well repeat) was determined with the CellTiter-Glo® reagent kit, according to the kit protocol, measured by a luminometer. Cell only as control (100%).
The cell viability was calculated according to the following formula: […]

C57BL/6J mice = assay: In vivo expression by IV, 1.0 mg/kg luciferase RNA-LNPs, whole-body and organ IVIS luminescence; conditions: Formulation No. 001, RNA No. 331; male C57BL/6J mice, 1.0 mg*kg−1 intravenous, 24-hours post injection
Description: (§4) 6-8 week old, male C57BL/6J mice (N=3) were injected with 1.0 mg*kg−1 of RNA-LNPs encoding for firefly-luciferase by intravenous injection. At 24-hours post injection, animals were intraperitoneally injected with 15 mg/ml of Luciferin substrate and whole-body/liver/spleen/kidney/small intestine/large intestine luminescence were determined by a bioluminescent in vivo imaging system (IVIS).
as §4, with “mg/nil” for “mg/ml”

Hep G2 cells [3] = assay: In vitro expression: luciferase activity in Hep G2 cells transfected with RNA-LNPs; assay type: cell-based; conditions: Formulation No. 001, RNA No. 331 (firefly-luciferase), 100 ng/mL RNA-LNPs, 72 hours post transfection
Description: 2E5 Hep G2 cells were transfected with 100 ng/mL of RNA-LNPs encoding for firefly-luciferase. At 72 hours post transfection, the cells were washed and lysed. The luciferase expression (2-well repeat) was determined in the cell lysates with the luciferase assay reagent kit (Promega), according to the kit protocol, luciferase activity was measured by a luminometer.

[4] = LNP size and polydispersity index (PDI) by dynamic light scattering (Zetasizer); assay type: physicochemical; conditions: for Size (nm): Formulation No. 001 (Ionizable lipid:DSPC:cholesterol:DMG-PEG2000 = 50:10:38.5:1.5, N/P 6), RNA No. 331; for PDI: Formulation No. 001, RNA No. 331
Description: as §1

MCP-1 = assay: In vivo tolerability by IV: serum MCP-1 by Luminex; parameters: species or system C57BL/6J mice; conditions: Formulation No. 001, RNA No. 331, male C57BL/6J mice, 1.0 mg*kg/1 intravenous; for MCP-1 at 2 h: 2 hours post injection; for MCP-1 at 24 h: 24 hours post injection
Description: as §3
as §3, with “mg*kg−1” for “mg*kg/1”

Row | SMILES | EE (%) [1] | Size (nm) [4] | PDI [4] | Liver (p/s) (Mean) (Balb/c mice) | Spleen (p/s) (Mean) (Balb/c mice) | Whole body (p/s) (Mean) (Balb/c mice) | IL-6 at 2 h (IL-6) | IL-6 at 24 h (IL-6) | In vitro cell viability (%) (Mean) (Hep G2 cells [2]) | Kidney (p/s) (C57BL/6J mice) | Large intestine (p/s) (C57BL/6J mice) | Liver (p/s) (C57BL/6J mice) | Small intestine (p/s) (C57BL/6J mice) | Spleen (p/s) (C57BL/6J mice) | Whole body (p/s) (C57BL/6J mice) | In vitro Expression (Mean) (Hep G2 cells [3]) | MCP-1 at 2 h (MCP-1) | MCP-1 at 24 h (MCP-1)
1 | CCCCCCCCCCCOC(=O)NC(COC(=O)NCCN(C)C)C(=O)OCCCCCCCC(=O)OC(CCCCCCCC)CCCCCCCC (centres unmarked) [Lipid 912] | 97.83% | 74.18 nm | 0.03 | 1.67E+07 p/s | 7.97E+06 p/s | 8.26E+07 p/s | – | – | 92.96% | – | – | – | – | – | – | 4.57E+04 | – | –
2 | CCCCC/C=C\C/C=C\CCCCCCCCOC(=O)NC(COC(=O)NCCN1CCCCCC1)C(=O)OCCCCCCCCOC(=O)C(CCCCCC)CCCCCCCC (centres unmarked) [Lipid 881] | 90.26% | 61.73 nm | 0.02 | 2.25E+08 p/s | 6.14E+07 p/s | 1.18E+09 p/s | 12.8 pg/mL | 6.69 pg/mL | 86.94% | 4.26E+07 p/s | 1.30E+08 p/s | 1.65E+09 p/s | 8.57E+08 p/s | 2.37E+08 p/s | 2.92E+09 p/s | 4.02E+05 | 1190 pg/mL | 253 pg/mL
3 | CCCCCCCCC(CCCCCCCC)OC(=O)CCCCCCCOC(=O)C(COC(=O)NCCN1CCCCCC1)NC(=O)OCCCCCCCCOC(=O)C(CCCCCC)CCCCCCCC (centres unmarked) [Lipid 897] | 95.30% | 60.19 nm | 0.04 | 1.67E+08 p/s | 7.67E+07 p/s | 8.36E+08 p/s | – | – | 88.39% | – | – | – | – | – | – | 1.77E+05 | – | –
4 | CCCCC/C=C\C/C=C\CCCCCCCCOC(=O)NC(COC(=O)NCCN1CCCC1)C(=O)OCCCCCC(=O)OCC(CCCCCCCC)CCCCCCCCCC (centres unmarked) [Lipid 909] | 98.41% | 74.26 nm | 0.02 | 7.57E+07 p/s | 2.35E+07 p/s | 7.25E+08 p/s | – | – | 94.80% | – | – | – | – | – | – | 7.29E+04 | – | –

More lines, main results first:

Row | EE (%) [1] | Size (nm) [4] | PDI [4] | SMILES | Liver (p/s) (Mean) (Balb/c mice) | Spleen (p/s) (Mean) (Balb/c mice) | Whole body (p/s) (Mean) (Balb/c mice) | IL-6 at 2 h (IL-6) | IL-6 at 24 h (IL-6) | In vitro cell viability (%) (Mean) (Hep G2 cells [2]) | Kidney (p/s) (C57BL/6J mice) | Large intestine (p/s) (C57BL/6J mice) | Liver (p/s) (C57BL/6J mice) | Small intestine (p/s) (C57BL/6J mice) | Spleen (p/s) (C57BL/6J mice) | Whole body (p/s) (C57BL/6J mice) | In vitro Expression (Mean) (Hep G2 cells [3]) | MCP-1 at 2 h (MCP-1) | MCP-1 at 24 h (MCP-1)
5 | 93.47% | 69.23 nm | 0.01 | CCCCC/C=C\C/C=C\CCCCCCCCOC(=O)C(COC(=O)NCCN1CCCCC1)NC(=O)OCCCCCCCCOC(=O)C(CCCCCC)CCCCCCCC (centres unmarked) [Lipid 918] | 4.14E+08 p/s | 7.74E+07 p/s | 1.21E+09 p/s | 9.3 pg/mL | 4.73 pg/mL | 85.92% | 1.99E+07 p/s | 8.43E+07 p/s | 4.67E+09 p/s | 6.30E+08 p/s | 3.95E+08 p/s | 5.08E+09 p/s | 1.25E+06 | 880 pg/mL | 300 pg/mL
6 | 90.23% | 104.00 nm | 0.19 | CCCCC/C=C\C/C=C\CCCCCCCCOC(=O)NC(COC(=O)NCCN1CCCCCC1)C(=O)OCCCCCC(=O)OCCCCCCCCCCC (centres unmarked) [Lipid 939] | 2.92E+08 p/s | 1.74E+08 p/s | 1.17E+09 p/s | 4280 pg/mL | 9.43 pg/mL | 95.74% | 1.21E+07 p/s | 1.70E+08 p/s | 5.86E+07 p/s | 4.96E+08 p/s | 1.18E+08 p/s | 3.50E+09 p/s | 3.08E+05 | 2440 pg/mL | 956 pg/mL
7 | 90.80% | 86.75 nm | 0.17 | CCCCC/C=C\C/C=C\CCCCCCCCOC(=O)NC(COC(=O)NCCN1CCCCCC1)C(=O)OCCCCCCCOC(=O)CCCCCCCCC (centres unmarked) [Lipid 944] | 5.10E+08 p/s | 1.31E+08 p/s | 1.29E+09 p/s | 432 pg/mL | 2.5 pg/mL | 95.62% | 1.54E+07 p/s | 5.53E+07 p/s | 5.27E+08 p/s | 1.93E+08 p/s | 4.76E+08 p/s | 1.06E+09 p/s | 3.60E+05 | 3640 pg/mL | 161 pg/mL
8 | 88.91% | 81.29 nm | 0.03 | CCCCCCCCCCCOC(=O)CCCCCOC(=O)C(COC(=O)NCCN1CCCCC1)NC(=O)OCCCCCCCCOC(=O)C(CCCCCC)CCCCCCCC (centres unmarked) [Lipid 923] | 4.09E+08 p/s | 5.03E+07 p/s | 1.57E+09 p/s | 11.9 pg/mL | 2.37 pg/mL | 88.59% | 5.13E+06 p/s | 5.94E+07 p/s | 1.44E+09 p/s | 3.01E+08 p/s | 3.85E+08 p/s | 2.42E+09 p/s | 7.34E+05 | 639 pg/mL | 75 pg/mL
9 | 97.46% | 92.24 nm | 0.04 | CCCCCCCCCC(=O)OCCCCCCCOC(=O)C(COC(=O)NCCN(C)C)NC(=O)OCCCCCCCCOC(=O)C(CCCCCC)CCCCCCCC (centres unmarked) [Lipid 930] | 3.49E+07 p/s | 6.28E+06 p/s | 1.31E+08 p/s | – | – | 92.08% | – | – | – | – | – | – | 8.27E+03 | – | –
